Data from the SangsterLogP compilation.

Assay: method code SF-HPLC, from DOI: 10.2478/s11532-013-0336-y

**Q.** For `CCCC=Cc1cc(OC)c(OC(=O)c2cccnc2)c(OC)c1`, which logP is on record?
**A.** 3.96

**Q.** Which logP does the source give for `CCC/C=C\c1c(OC)cc(OC)cc1OC` here?
**A.** 3.97

**Q.** For `CC/C=C\c1c(OC)cc(OC)cc1OC`, which logP is on record?
**A.** 3.56

**Q.** For `CCCCC=Cc1cc(OC)c(OC)c(OC)c1`, which logP is on record?
**A.** 4.1

**Q.** Which logP does the source give for `C/C=C/c1cc(OC)c(OC)cc1OC` here?
**A.** 2.44

**Q.** For `C/C=C/c1cc(OC)c(OC)c(OC)c1`, which logP is on record?
**A.** 2.27

**Q.** For `CCCCCC(O)c1cc(OC)c(OC)c(OC)c1` (stereo not given), which logP is on record?
**A.** 2.9

**Q.** For `CCC=Cc1cc(OC)c(OC(=O)c2cccnc2)c(OC)c1`, which logP is on record?
**A.** 3.5

**Q.** Which logP does the source give for `C/C=C/c1ccc(OC)c(OC)c1OC` here?
**A.** 3.09

**Q.** For `C=CCOc1c(OC)cc(C=CCC)cc1OC`, which logP is on record?
**A.** 3.81

**Q.** Which logP does the source give for `CCC(O)c1cc(OC)c(OC)c(OC)c1` (stereo not given) here?
**A.** 1.45

**Q.** With `CCCC(O)c1cc(OC)c(OC)c(OC)c1` (stereo not given) as the compound, how does the logP read?
**A.** 1.94

**Q.** Which logP does the source give for `C/C=C/c1cc(OC)cc(OC)c1OC` here?
**A.** 2.93

**Q.** Which logP does the source give for `C/C=C/c1c(OC)ccc(OC)c1OC` here?
**A.** 2.73

**Q.** For `CCCCCC=Cc1cc(OC)c(OC)c(OC)c1`, which logP is on record?
**A.** 4.5

**Q.** Which logP does the source give for `CCCCC(O)c1cc(OC)c(OC)c(OC)c1` (stereo not given) here?
**A.** 2.49

**Q.** For `C/C=C/c1c(OC)cc(OC)cc1OC`, which logP is on record?
**A.** 2.61

**Q.** Which logP does the source give for `C=CCOc1c(OC)cc(C=CC)cc1OC` here?
**A.** 3.22

**Q.** Which logP does the source give for `CCCC/C=C\c1c(OC)cc(OC)cc1OC` here?
**A.** 4.57

**Q.** Which logP does the source give for `CC/C=C\c1cc(OC)c(OC)c(OC)c1` here?
**A.** 3.06

**Q.** With `C=CCOc1c(OC)cc(C=CCCC)cc1OC` as the compound, how does the logP read?
**A.** 4.28

**Q.** For `CCCC=Cc1cc(OC)c(OC)c(OC)c1`, which logP is on record?
**A.** 3.67

**Q.** Which logP does the source give for `CC=Cc1cc(OC)c(OC(=O)c2cccnc2)c(OC)c1` here?
**A.** 2.94

**Q.** For `CCCCCCC(O)c1cc(OC)c(OC)c(OC)c1` (stereo not given), which logP is on record?
**A.** 3.59

**Q.** For `CCCCCCCC(O)c1cc(OC)c(OC)c(OC)c1` (stereo not given), which logP is on record?
**A.** 3.95
